{"source": "patent US20130210907A1", "about": "“METHOD FOR PREVENTING OR TREATING ENTEROCHROMAFFIN CELL HYPERPLASIA-RELATED DISEASES BY QUERCETIN ADMINISTRATION” (HONG KONG BAPTIST UNIVERSITY, priority 2012, published 2013)", "key": {"[1]": {"system": "QGP-1 cells", "assay": "Apoptosis by DAPI staining, fluorescence microscopy", "assay_type": "cell-based, human", "settings": "QGP-1, 25~100 μM, 24 h", "description": "Cells are seeded on coverslips in 24-well plate at the density of 100,000 cells per well and cultured overnight. After exposure to DMSO (control) or different concentration of Quercetin for 24 h, cells are washed three times and fixed with 4% paraformaldehyde for 20 min at room temperature. After washing in PBS, cells are permeabilized in 0.2% tritonX-100 for 10 min and stained with DAPI (20 μg/ml) for 10 min at room temperature in darkness. Slides are examined with a laser scanning microscope (Olympus Fluoview FV1000) 40× magnification. Three hundred cells are counted per slide randomly as previously reported in Ramage L, Jones A C, Whelan C J. Induction of apoptosis with tobacco smoke and related products in A549 lung epithelial cells in vitro. J Inflamm (Lond). 2006; 3:3. Apoptosis cells condense or fragment nuclear chromatin with or without apoptotic bodies, while normal cells have typical morphology with smooth nuclear and membrane."}, "[2]": {"system": "normal rats", "assay": "Colonic EC cell density in normal rats", "assay_type": "in vivo, rat", "settings": "10 mg/kg i.g., 14 days", "description": "Tissue sections (5-μm thick) are deparaffinized and rehydrated for silver staining. Briefly, sections are incubated with 5% ammoniacal silver solution for 4 h at room temperature, then 2 h in 56° C. and subsequently 12 h at room temperature in a dark humidified chamber. After rinsing with water, 5% sodium hyposulfite is added and the tissue sections are incubated for 5 min at room temperature. The brown to black silver precipitate in the cytoplasm of EC cells represents as a positive reaction. A researcher blinded to treatment counted 5 random fields at 200× magnifications for each section, and the number of EC cells per mm^2 of mucosa is quantified using Image J NIH software.\nTo identify whether the effects of Quercerin in PI-IBS rats are specific, pain threshold pressure, colonic EC cell number and 5-HT content are further evaluated in normal rats treated with Quercetin. Briefly, Quercetin at the dose of 10 mg/kg is administered to normal rats orally for 14 days. After the final drug administration, pain threshold pressure, colonic EC cell density and 5-HT content are evaluated and the methods used here are as same as that shown in above experiments."}, "[3]": {"system": "p21", "assay": "Western blot of p21 in QGP-1 cells", "assay_type": "cell-based, human", "settings": "QGP-1, 50-100 nM (so in the source), 24 h", "description": "(§1) After drug treatment, the cells are lysed and centrifuged to collect the protein extract After determination of protein content, the samples protein are denatured at 100° C. for 5 min Proteins are separated by 10-12% SDS-PAGE and transferred to PVDF membranes (Bio-Rad, CA). After blocking with 5% nonfat milk for 1 h at room temperature, the membranes are incubated overnight at 4° C. with primary antibodies (mouse anti-cyclin BE 1:500, Abcam; goat anti-p-Cdc2:1:500, Santa Cruz; mouse anti-p21: 1:500, BD Bioscience). After washing three times in TBST, the membranes where incubated with the appropriate secondary antibodies (1:2000, Invitrogen) for 1 h at room temperature. The immunoreaction is detected using ECL Western blotting kit (ECL, Amersham, UK). Bands are visualized on Biomax X-ray film, and optical density of each band is semi-quantified by software (Image J.NIH). In order to adjust for any variations in loading, all detected protein bands are normalized to β-actin levels."}, "[4]": {"system": "TPH", "assay": "Colonic TPH expression by Western blot", "assay_type": "in vivo, rat", "description": "The colon tissues are homogenized and sonicated on ice for protein extraction. After determination of protein content, the samples protein are denatured at 100° C. for 5 min. Proteins are separated by 10% SDS-PAGE and transferred to PVDF membranes (Bio-Rad, CA). After blocking with 5% nonfat milk, the membranes are incubated overnight at 4° C. with rabbit anti-TPH antibody (1:1000, Santa Cruz, Calif.), then incubated with the appropriate secondary antibodies for 1 h at room temperature. The immunoreaction is detected using ECL Western blotting kit (ECL, Amersham, UK). Bands are visualized on Biomax X-ray film, and optical density of each band is semi-quantified by computer software (Image J.NIH). All detected protein bands are normalized to β-actin levels."}, "[5]": {"system": "cyclin B1", "assay": "Western blot of cyclin B1 in QGP-1 cells", "assay_type": "cell-based, human", "settings": "QGP-1, 50-100 μM, 24 h", "description": "as §1"}, "[6]": {"system": "PI-IBS rats", "assay": "Colonic tissue 5-HT content (capillary electrophoresis, laser-induced fluorescence)", "assay_type": "in vivo, rat", "settings": "for 5-HT content: PI-IBS rats, colon", "description": "Six groups of 5 rats are tested. The groups setting and treatments are as described in Example 1. Different from Example 1, AWR test are not applied to the rats in this experiment in order to obtain the basal data without CRD stimulus. After the last drug administration, a 6 cm proximal colon (1-2 cm from caecum) is collected and divided into 3 parts, the proximal is fixed in 4% paraformaldehyde and embedded in paraffin for EC cell staining; the middle part is collected for 5-HT content measurement and electron microscopic evaluation, and the distal part is for western blotting analysis.\n5-HT content in the colon tissue is assayed based on our previously reported procedure in Qi S D, Tian S L, Xu H X, Sung J J, Bian Z X. Quantification of luminally released serotonin in rat proximal colon by capillary electrophoresis with laser-induced fluorescence detection. Anal Bioanal Chem. 2009 April; 393(8):2059-66. Briefly, the colon segment is homogenized in 15% iced trichloroacetic acid; for 2 min and stored at 4° C. for 2 h. After centrifuge at 10,000 G for 15 min, the supernatant of each sample is filtered using 0.22 μm filters and extracted with diethyl ether for five times to remove the trichloroacetic acid. The prepared samples are added to derivatization solution (150 mM sodium tetraborate, 25% acetonitrile, 2 mM CFSE) and incubated for […] in dark at room temperature. The 5-HT content is analyzed by capillary electrophoresis with laser-induced fluorescence detection and expressed as nanogram per milligram (wet weight of tissue)."}}}
{"compound": "O=c1c(O)c(-c2ccc(O)c(O)c2)oc2cc(O)cc(O)c12", "note": "[Quercetin, 2-(3,4-dihydroxyphenyl)-3,5,7-trihydroxy-4H-chromen-4-one]", "values": [{"measurement": "Apoptosis rate", "setting": "[1]", "result": "concentration-dependently increases"}, {"measurement": "EC cell density", "setting": "[2]", "result": "91 ± 10", "unit": "Number/mm^2"}, {"measurement": "Protein level of p21", "setting": "[3]", "result": "significantly increased"}, {"measurement": "TPH/actin ratio", "setting": "[4]; PI-IBS rats, colon, 10 mg/kg i.g.", "result": "0.62 ± 0.11"}, {"measurement": "Reduction of colonic TPH expression in PI-IBS rats", "setting": "[4]; median dose, 10 mg/kg, p<0.05", "result": "~22.8", "unit": "%"}, {"measurement": "Protein level of cyclin B1", "setting": "[5]", "result": "significantly decrease"}, {"measurement": "5-HT content", "setting": "[6]; 5 mg/kg i.g.", "result": "5.15 ± 0.58", "unit": "ng/mg"}, {"measurement": "5-HT content", "setting": "[6]; 10 mg/kg i.g.", "result": "4.63 ± 0.92", "unit": "ng/mg"}, {"measurement": "5-HT content", "setting": "[6]; 20 mg/kg i.g.", "result": "5.50 ± 0.65^ ng/mg"}, {"measurement": "Decrease of 5-HT content compared with the PI-IBS group", "setting": "[6]; low dose (5 mg/kg)", "result": 28, "unit": "%"}, {"measurement": "Decrease of 5-HT content compared with the PI-IBS group", "setting": "[6]; median dose (10 mg/kg)", "result": 35, "unit": "%"}]}
